In US20260207636A1, “PRODRUGS OF DIMETHOXYPHENYL[…] SEROTONIN RECEPTORS” (priority 2022, published 2026):

Legend:
[1] = Compound chemical stability in SGF with pepsin; format: physicochemical
Protocol: (§1) Compounds 1-6 were assessed for their stability in various environments, including phosphate buffered saline (PBS), simulated gastric fluid (SGF) with pepsin, SGF without pepsin, and mouse plasma, using standard stability assay protocols.

[2] = Compound mouse plasma stability; format: in vitro ADME
Protocol: as §1

[3] = Compound chemical stability in SGF without pepsin; format: physicochemical
Protocol: as §1

[4] = Compound chemical stability in PBS (pH 6.5); format: physicochemical
Protocol: as §1

| % Remaining ([1]; 0 minutes) [%] | % Remaining ([1]; 30 minutes) [%] | % Remaining ([1]; 60 minutes) [%] | % Remaining ([1]; 120 minutes) [%] | % Remaining ([1]; 240 minutes) [%] | % Remaining ([2]; 0 minutes) [%] | % Remaining ([2]; 30 minutes) [%] | % Remaining ([2]; 60 minutes) [%] | % Remaining ([2]; 120 minutes) [%] | % Remaining ([2]; 240 minutes) [%] | % Remaining ([3]; 0 minutes) [%] | % Remaining ([3]; 30 minutes) [%] | % Remaining ([3]; 60 minutes) [%] | % Remaining ([3]; 120 minutes) [%] | % Remaining ([3]; 240 minutes) [%] | % Remaining ([4]; 0 minutes) [%] | % Remaining ([4]; 30 minutes) [%] | % Remaining ([4]; 60 minutes) [%] | % Remaining ([4]; 120 minutes) [%] | % Remaining ([4]; 240 minutes) [%] | SMILES |
| --- | --- | --- | --- | --- | --- | --- | --- | --- | --- | --- | --- | --- | --- | --- | --- | --- | --- | --- | --- | --- |
| 100 | 93 | 93 | 84 | 70 | 100 | 73 | 61 | 41 | 20 | 100 | 100 | 96 | 86 | 72 | 100 | 66 | 43 | 15 | 2 | COc1ccc(OC)c(CCN(Cc2cc(C)cc(Cl)c2)Cc2oc(=O)oc2C)c1 [Compound 2, 4-(((3-Chloro-5-methylbenzyl)(2,5-dimethoxyphenethyl)amino)methyl)-5-methyl-1,3-dioxol-2-one] |
| 100 | 105 | 105 | 93 | 106 | 100 | 00 | 00 | 00 | 00 | 100 | 105 | 109 | 106 | 107 | 100 | 97 | 94 | 89 | 67 | COc1ccc(OC)c(CCN(Cc2cc(C)cc(Cl)c2)C(=O)OCc2oc(=O)oc2C)c1 [Compound 3, (5-Methyl-2-oxo-1,3-dioxol-4-yl)methyl (3-chloro-5-methylbenzyl)(2,5-dimethoxyphenethyl)carbamate] |
| 100 | 97 | 92 | 90 | 80 | 100 | 88 | 86 | 91 | 87 | 100 | 100 | 88 | 94 | 101 | 100 | 96 | 99 | 101 | 94 | CCOC(=O)N(CCc1cc(OC)ccc1OC)Cc1cc(C)cc(Cl)c1 [Compound 5, Ethyl (3-chloro-5-methylbenzyl)(2,5-dimethoxyphenethyl)carbamate] |
| 100 | 95 | 97 | 96 | 94 | 100 | 85 | 82 | 89 | 86 | 100 | 98 | 99 | 95 | 96 | 100 | 91 | 94 | 93 | 93 | COc1ccc(OC)c(CCN(Cc2cc(C)cc(Cl)c2)C(=O)CN)c1 [Compound 6, 2-Amino-N-(3-chloro-5-methylbenzyl)-N-(2,5-dimethoxyphenethyl)acetamide] |

| SMILES | % Remaining ([1]; 0 minutes) [%] | % Remaining ([1]; 30 minutes) [%] | % Remaining ([1]; 60 minutes) [%] | % Remaining ([1]; 120 minutes) [%] | % Remaining ([1]; 240 minutes) [%] | % Remaining ([2]; 0 minutes) [%] | % Remaining ([2]; 30 minutes) [%] | % Remaining ([2]; 60 minutes) [%] | % Remaining ([2]; 120 minutes) [%] | % Remaining ([2]; 240 minutes) [%] | % Remaining ([3]; 0 minutes) [%] | % Remaining ([3]; 30 minutes) [%] | % Remaining ([3]; 60 minutes) [%] | % Remaining ([3]; 120 minutes) [%] | % Remaining ([3]; 240 minutes) [%] | % Remaining ([4]; 0 minutes) [%] | % Remaining ([4]; 30 minutes) [%] | % Remaining ([4]; 60 minutes) [%] | % Remaining ([4]; 120 minutes) [%] | % Remaining ([4]; 240 minutes) [%] |
| --- | --- | --- | --- | --- | --- | --- | --- | --- | --- | --- | --- | --- | --- | --- | --- | --- | --- | --- | --- | --- |
| COc1ccc(OC)c(CCN(Cc2cc(C)cc(Cl)c2)C(=O)OC(C)OC(=O)C(C)(C)C)c1 (stereo not shown) [Compound 4, 1-(((3-Chloro-5-methylbenzyl)(2,5-dimethoxyphenethyl)carbamoyl)oxy)ethyl pivalate] | 100 | 93 | 96 | 94 | 105 | 100 | 2 | 1 | 00 | 00 | 100 | 90 | 89 | 96 | 88 | 100 | 102 | 101 | 102 | 116 |
